Data reported in article PMC9491098, “Discovery of novel drug-like antitubercular hits targeting the MEP pathway enzyme DXPS by strategic application of ligand-based virtual screening” (Chemical Science, 2022).
≈ marks a conversion by molar mass, not a printed value. Where “and” joins values, the source holds several entries; their conditions need not be identical. Equal values may be shown once. Read-outs that look alike come from different tables or passages of the source.

Tests used:
DrDXPS (WT) = DrDXPS (WT) (Deinococcus radiodurans, UniProt Q9RUB5); assay: biochemical; format: biochemical; conditions: IC50, Fig. 5F/G, DrDXPS (WT)
[1] = system: E. coli strain BL21 (DE3) pET22b-H6[…]; assay: microbe, parasite or virus in culture; format: cell-based; conditions: Escherichia coli, Fig. 6B
MtDXPS [2] = molecular target: T1, MtDXPS (Mycobacterium tuberculosis, UniProt P9WNS3)
zebrafish larvae = assay: toxicity against zebrafish larvae; format: in vivo; conditions: Table S4, 10 larvae per condition
HEK293 = assay: toxicity against human cell lines; format: cell-based; conditions: HEK293, 48 h, read-out: Toxicity Human cell lines EC50 (μM) HEK293
[3] = metabolic stability in human liver S9 fraction; conditions: pooled liver S9 fraction
Protocol: For vitro assessment of metabolic stability, 10 µL of each compound (10 µM) was
incubated with human pooled liver S9-fraction (1 mg/mL, Corning, Corning, NY, USA)
in a master mix containing 2 mM NADP, 10 mM glucose-6-phosphate, 10 U/mL
glucose-6-phosphate dehydrogenase, 1 mM UDPGA, 0.1 mM PAPS, 10 mM MgCl2.
acetonitrile containing diphenhydramine as internal standard at 4 °C. The supernatant
was used for LC-MS analysis and half life time t1/2 was calculated from decreasing
concentrations/peak areas.
LC conditions: samples were analyzed with an Ultimate 3000 HPLC (Thermo Fisher,
Waltham, MA, USA) coupled to a TSQ Quantum Access Max triple quadrupole mass
spectrometer (Thermo Fisher, Waltham, MA, USA) in SRM mode. Analysis was
performed on a Nucleodur C18 Pyramid column (3 µm, 2x150 mm, Macherey-Nagel,
Düren, Germany) with a flow of 0.6 mL/min and a water (0.1% formic acid) and
acetonitrile (0.1% formic acid) eluent system. Gradient as follows: 10% acetonitrile for
1 min, 10–90% acetonitrile over 0.7 min, 90% acetonitrile for 1.8 min, equilibration at
10% acetonitrile for 1 min.
MS conditions: calibration of mass spectrometer parameters was performed
individually for each compound:

HepG2 = assay: toxicity against human cell lines; format: cell-based; conditions: HepG2, 48 h, read-out: Toxicity Human cell lines EC50 (μM) HepG2
[4] = system: E. coli strain BL21 (DE3) pQEYAEM; assay: microbe, parasite or virus in culture; format: cell-based; conditions: Escherichia coli, Fig. 6A
M. tuberculosis strains = assay: MIC against multiple M. tuberculosis strains, absolute concentration method on 7H10 agar; format: cell-based; conditions: Mycobacterium tuberculosis
A549 = assay: toxicity against human cell lines; format: cell-based; conditions: A549, 48 h, read-out: Toxicity Human cell lines EC50 (μM) A549
MtDXPS [5] = molecular target: T1, MtDXPS; assay: biochemical
MtDXPS [6] = molecular target: T1, MtDXPS; assay: microscale thermophoresis (MST) dissociation constant; format: binding; conditions: Fig. 4F
Protocol: ETB + A <===> ETAB : Ka2 (Ka2 is the dissociation constant of pyruvate with […]
ETA + B <===> ETAB : Kb2 (Kb2 is the dissociation constant of ThDP with DXPS) E + I <===> EI* : Ki* (Ki* is the Morrison inhibition constant of inhibitor with apoDXPS) ETAB ---> ET + P : kcat (kcat is the catalytic constant of DXPS) […]
microscale thermophoresis (MST)
MST measurements were performed on a Monolith NT.115 (NanoTemper
Technologies GmbH, Germany) instrument using red-dye-NHS fluorescent labeling.
Each purified MtDXPS sample was labeled with red-dye-NHS second generation dye, according to the supplied protocol. Measurements were performed in 100 m M Tris-HCl (pH 7.6) containing 0.05% Tween-20 and 5% DMSO in premium treated capillaries.
The final concentration of each labeled protein in the assay was 100 n M. The inhibitors were titrated in 1:1 dilutions according to the supplier’s recommendations. All binding reactions were incubated at room temperature for 30 min before loading, and then pre-incubated for 5 min at room temperature after loading into the capillaries. Experiments were performed in duplicates, using 40% LED power, medium MST power, laser on time 20 s, and laser off time 3 s. Kds of the inhibitors were extracted from raw data at a 10–20 s on time according to the manufacturer’s instructions. A denaturation test was performed to exclude any nonspecific spectral interactions between the inhibitors […]
The solutions were vortexed, and then the rest of the assay components was added in the following order: HEPES, pH = 8 (100 m M), bovine serum albumin (1 mg/mL), cysteine (2 mM), ThDP (0.325 μM), coenzyme-A (150 μM), TCEP (300 μM), pyruvate (150 μM) and MgCl2 (1 mM). […] Porcine PDH (final concentration of 0.01 U/ mL) was then added to initiate the reactions, which were monitored spectrophotometrically by measuring the […]

MtDXPS [7] = molecular target: T1, MtDXPS; assay: biochemical; conditions: for mode of inhibition on MtDXPS: MOI study, comparison of IC50 under varied [ThDP], [PYR], [D-GAP]; for equilibration time (slow-binding): time-dependent progress curves, Fig. 4A, inhibitor 100 µM
E. coli TolC = assay: microbe, parasite or virus in culture; format: cell-based; conditions: Escherichia coli
[8] = [ThDP] 0.1 μM (1.6x Km), [PYR] 0.5 mM (2.4x), [D-GAP] […] (1.5x)
[9] = [ThDP] 0.1 μM (1.6x Km), [PYR] […] (1.2x), [D-GAP] 0.5 mM (2.9x)
[10] = [ThDP] 0.1 μM (1.6x Km), [PYR] […] (1.2x), [D-GAP] […] (1.5x)
[11] = [ThDP] 0.2 μM (3.2x Km), [PYR] […] (1.2x), [D-GAP] […] (1.5x)
[12] = [IPTG] 0.5 mM (MtDXPS overexpression)
[13] = [IPTG] 0.5 mM (E. coli IspC overexpression)
[14] = read-out: Antitubercular activity Strain & MIC (μM) A
[15] = read-out: Antitubercular activity Strain & MIC (μM) B
[16] = read-out: Antitubercular activity Strain & MIC (μM) C
[17] = read-out: Antitubercular activity Strain & MIC (μM) D
[18] = read-out: Antitubercular activity Strain & MIC (μM) E
[19] = read-out: Antitubercular activity Strain & MIC (μM) F
[20] = susceptible, DR, MDR and XDR strains, read-out: antitubercular activity (MIC) against multiple M. tuberculosis strains
[21] = Morrison constant Ki* against MtDXPS, two-step tight-binding Morrison model, Dynafit, text and Fig. 4C–E

DrDXPS (WT), sequence (Q9RUB5 whole entry, looked up): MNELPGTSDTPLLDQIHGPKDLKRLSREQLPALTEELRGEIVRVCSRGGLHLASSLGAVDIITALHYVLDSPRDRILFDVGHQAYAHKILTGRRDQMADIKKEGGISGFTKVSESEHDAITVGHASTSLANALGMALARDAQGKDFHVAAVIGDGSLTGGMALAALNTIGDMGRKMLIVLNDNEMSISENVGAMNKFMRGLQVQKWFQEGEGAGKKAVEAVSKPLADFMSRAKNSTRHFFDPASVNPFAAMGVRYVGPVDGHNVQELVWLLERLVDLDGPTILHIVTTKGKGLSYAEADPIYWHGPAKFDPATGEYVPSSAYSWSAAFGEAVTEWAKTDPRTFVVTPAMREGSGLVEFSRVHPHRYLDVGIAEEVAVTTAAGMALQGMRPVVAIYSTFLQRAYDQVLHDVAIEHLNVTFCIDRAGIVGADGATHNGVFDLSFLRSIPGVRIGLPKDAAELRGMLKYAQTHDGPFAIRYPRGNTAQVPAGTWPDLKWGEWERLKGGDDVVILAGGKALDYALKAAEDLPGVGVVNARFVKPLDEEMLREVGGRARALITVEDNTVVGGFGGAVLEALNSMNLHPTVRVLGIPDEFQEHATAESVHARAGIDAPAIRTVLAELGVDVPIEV
T1 sequence (P9WNS3 whole entry, looked up): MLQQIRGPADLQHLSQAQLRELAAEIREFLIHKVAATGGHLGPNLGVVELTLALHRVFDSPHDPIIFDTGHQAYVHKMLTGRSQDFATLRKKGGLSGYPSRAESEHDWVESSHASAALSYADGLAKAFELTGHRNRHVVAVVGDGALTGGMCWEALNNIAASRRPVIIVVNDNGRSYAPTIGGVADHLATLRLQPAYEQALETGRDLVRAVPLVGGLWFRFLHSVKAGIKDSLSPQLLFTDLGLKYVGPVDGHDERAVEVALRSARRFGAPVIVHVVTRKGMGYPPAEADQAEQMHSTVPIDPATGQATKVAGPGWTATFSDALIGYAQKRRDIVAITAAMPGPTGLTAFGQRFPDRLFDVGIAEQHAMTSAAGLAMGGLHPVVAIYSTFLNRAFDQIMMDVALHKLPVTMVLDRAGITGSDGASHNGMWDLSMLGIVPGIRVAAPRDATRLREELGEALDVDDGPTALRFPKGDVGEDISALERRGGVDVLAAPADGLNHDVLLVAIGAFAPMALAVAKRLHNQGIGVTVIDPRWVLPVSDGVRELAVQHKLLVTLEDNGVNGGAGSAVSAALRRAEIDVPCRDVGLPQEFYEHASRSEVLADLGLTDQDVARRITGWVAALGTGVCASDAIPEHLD

ON=C(Cc1ccc(Cl)cc1)c1ccc(O)cc1O [Compound 9]
IC50 (DrDXPS (WT); [8]): 59 ± 10 µM
IC50 (DrDXPS (WT); [9]): 70 ± 11 µM
IC50 (DrDXPS (WT); [10]): 33 ± 4 µM
IC50 (DrDXPS (WT); [11]): 54 ± 7 µM
MIC ([1]; [IPTG] 0 mM): 15 ± 1 µM (≈ 4.17 µg/mL)
MIC [1, 12]: > 200 µM
hit validation (false-positive check) (MtDXPS [2]): true inhibitors
number of living zebrafish larvae (zebrafish larvae; 2 µM, 24 h (2 dpf)): 10
number of living zebrafish larvae (zebrafish larvae; 2 µM, 48 h (3 dpf)): 10
number of living zebrafish larvae (zebrafish larvae; 2 µM, 72 h (4 dpf)): 10
number of living zebrafish larvae (zebrafish larvae; 2 µM, 96 h (5 dpf)): 10
number of living zebrafish larvae (zebrafish larvae; 10 µM, 24 h (2 dpf)): 10
number of living zebrafish larvae (zebrafish larvae; 10 µM, 48 h (3 dpf)): 10
number of living zebrafish larvae (zebrafish larvae; 10 µM, 72 h (4 dpf)): 10
number of living zebrafish larvae (zebrafish larvae; 10 µM, 96 h (5 dpf)): 10
number of living zebrafish larvae (zebrafish larvae; 30 µM, 24 h (2 dpf)): 10
number of living zebrafish larvae (zebrafish larvae; 30 µM, 48 h (3 dpf)): 10
number of living zebrafish larvae (zebrafish larvae; 30 µM, 72 h (4 dpf)): 10
number of living zebrafish larvae (zebrafish larvae; 30 µM, 96 h (5 dpf)): 10
number of living zebrafish larvae (zebrafish larvae; 100 µM, 24 h (2 dpf)): 5
number of living zebrafish larvae (zebrafish larvae; 100 µM, 48 h (3 dpf)): 2
number of living zebrafish larvae (zebrafish larvae; 100 µM, 72 h (4 dpf)): 0
number of living zebrafish larvae (zebrafish larvae; 100 µM, 96 h (5 dpf)): 0
EC50 (HEK293): > 50 µM
half-life at 10 µM [3]: 20 min
EC50 (HepG2): > 50 µM
MIC ([4]; [IPTG] 0 mM): 12 ± 3 µM (≈ 3.33 µg/mL)
MIC [4, 13]: 10 ± 1 µM (≈ 2.78 µg/mL)
MIC (M. tuberculosis strains; [14]): 10 µM (≈ 2.78 µg/mL)
MIC (M. tuberculosis strains; [15]): 10 µM (≈ 2.78 µg/mL)
MIC (M. tuberculosis strains; [16]): 10 µM (≈ 2.78 µg/mL)
MIC (M. tuberculosis strains; [17]): 10 µM (≈ 2.78 µg/mL)
MIC (M. tuberculosis strains; [18]): 10 µM (≈ 2.78 µg/mL)
MIC (M. tuberculosis strains; [19]): 5 to 10 µM (≈ 1.39 to 2.78 µg/mL)
MIC (M. tuberculosis strains; [20]): 5 to 10 µM (≈ 1.39 to 2.78 µg/mL)
EC50 (A549): > 50 µM
Ki (MtDXPS [5]; K i* (μM), Table 1B, oxime derivatives, MtDXPS): 0.3 ± 0.02 µM
Ki (MtDXPS [5]; [21]): 0.271 µM and 0.2 to 0.3 µM
Kd (MtDXPS [6]): 0.221 µM and 0.2 µM
IC50 (MtDXPS [7]; IC50 (μM)): 44 ± 8 µM
IC50 (MtDXPS [7]; IC50 against MtDXPS): 140 ± 12 µM
IC50 (MtDXPS [7]; IC50 against MtDXPS (MOI study)): 17 µM and 35 µM and 58 µM and 121 µM
mode of inhibition on MtDXPS (MtDXPS [7]): competitive with ThDP and both substrates
equilibration time (slow-binding) (MtDXPS [7]): ~100 s
MIC (E. coli TolC): 21.9 ± 1.3 µM (≈ 6.08 µg/mL)

Cc1nc(N)sc1-c1csc(Nc2ccc(C(F)(F)F)cc2)n1 [Compound 10]
IC50 (DrDXPS (WT); [8]): 108 ± 20 µM
IC50 (DrDXPS (WT); [9]): 132 ± 22 µM
IC50 (DrDXPS (WT); [10]): 60 ± 11 µM
IC50 (DrDXPS (WT); [11]): 81 ± 12 µM
MIC ([1]; [IPTG] 0 mM): 13 ± 1 µM (≈ 4.63 µg/mL)
MIC [1, 12]: 35 ± 3 µM (≈ 12.5 µg/mL)
hit validation (false-positive check) (MtDXPS [2]): true inhibitors
number of living zebrafish larvae (zebrafish larvae; 2 µM, 24 h (2 dpf)): 10
number of living zebrafish larvae (zebrafish larvae; 2 µM, 48 h (3 dpf)): 10
number of living zebrafish larvae (zebrafish larvae; 2 µM, 72 h (4 dpf)): 10
number of living zebrafish larvae (zebrafish larvae; 2 µM, 96 h (5 dpf)): 10
number of living zebrafish larvae (zebrafish larvae; 10 µM, 24 h (2 dpf)): 10
number of living zebrafish larvae (zebrafish larvae; 10 µM, 48 h (3 dpf)): 10
number of living zebrafish larvae (zebrafish larvae; 10 µM, 72 h (4 dpf)): 10
number of living zebrafish larvae (zebrafish larvae; 10 µM, 96 h (5 dpf)): 10
number of living zebrafish larvae (zebrafish larvae; 30 µM, 24 h (2 dpf)): 2
number of living zebrafish larvae (zebrafish larvae; 30 µM, 48 h (3 dpf)): 0
number of living zebrafish larvae (zebrafish larvae; 30 µM, 72 h (4 dpf)): 0
number of living zebrafish larvae (zebrafish larvae; 30 µM, 96 h (5 dpf)): 0
number of living zebrafish larvae (zebrafish larvae; 100 µM, 24 h (2 dpf)): 0
number of living zebrafish larvae (zebrafish larvae; 100 µM, 48 h (3 dpf)): 0
number of living zebrafish larvae (zebrafish larvae; 100 µM, 72 h (4 dpf)): 0
number of living zebrafish larvae (zebrafish larvae; 100 µM, 96 h (5 dpf)): 0
EC50 (HEK293): 25 to 50 µM
half-life at 10 µM [3]: > 60 min
EC50 (HepG2): > 50 µM
MIC ([4]; [IPTG] 0 mM): 15 ± 3 µM (≈ 5.35 µg/mL)
MIC [4, 13]: 17 ± 2 µM (≈ 6.06 µg/mL)
MIC (M. tuberculosis strains; [14]): > 10 µM
MIC (M. tuberculosis strains; [15]): 5 µM (≈ 1.78 µg/mL)
MIC (M. tuberculosis strains; [16]): 5 µM (≈ 1.78 µg/mL)
MIC (M. tuberculosis strains; [17]): 10 µM (≈ 3.56 µg/mL)
MIC (M. tuberculosis strains; [18]): 5 to 10 µM (≈ 1.78 to 3.56 µg/mL)
MIC (M. tuberculosis strains; [19]): 5 to 10 µM (≈ 1.78 to 3.56 µg/mL)
MIC (M. tuberculosis strains; [20]): 5 to 10 µM (≈ 1.78 to 3.56 µg/mL)
EC50 (A549): > 50 µM
Ki (MtDXPS [5]; K i* (μM), Table 1C, aminothiazole derivatives, MtDXPS): 0.2 ± 0.02 µM
Ki (MtDXPS [5]; [21]): 0.212 µM and 0.2 to 0.3 µM
Kd (MtDXPS [6]): 0.206 µM and 0.2 µM
IC50 (MtDXPS [7]; IC50 (μM)): 32 ± 3 µM
IC50 (MtDXPS [7]; IC50 against MtDXPS): 118 ± 10 µM
mode of inhibition on MtDXPS (MtDXPS [7]): competitive with ThDP and both substrates
equilibration time (slow-binding) (MtDXPS [7]): ~100 s
MIC (E. coli TolC): 22.2 ± 3.1 µM (≈ 7.91 µg/mL)
